Assay results published in ChEMBL document CHEMBL4311957, “Recent advances in natural antifungal flavonoids and their derivatives” (Bioorg Med Chem Lett, 2019).
In brackets after ≈: the same amount, converted by molar mass.

Assays:
Aspergillus fumigatus [1] = test: Antifungal activity against Aspergillus fumigatus; type: functional
Candida albicans [2] = test: Antifungal activity against Candida albicans; type: functional, organism-based
Candida albicans [3] = test: Antifungal activity against Candida albicans ATCC 10231 after 48 hrs by CLSI-based broth microdilution method; type: functional; conditions: ATCC 10231, 48 h
Cryptococcus gattii = test: Antifungal activity against Cryptococcus gattii after 72 hrs; type: functional, Cryptococcus gattii VGI
Candida tropicalis [4] = test: Antifungal activity against Candida tropicalis CCC 131-2000 after 48 hrs by CLSI-based broth microdilution method; type: functional; conditions: CCC 131-2000, 48 h
Cryptococcus neoformans [5] = test: Antifungal activity against Cryptococcus neoformans after 72 hrs; type: functional
Trichophyton rubrum [6] = test: Antifungal activity against Trichophyton rubrum after 5 days; type: functional; conditions: 120 h
Cryptococcus neoformans [7] = test: Antifungal activity against Cryptococcus neoformans ATCC 32264 after 48 hrs by CLSI-based broth microdilution method; type: functional; conditions: ATCC 32264, 48 h
Trichophyton tonsurans = test: Antifungal activity against Trichophyton tonsurans after 5 days; type: functional; conditions: 120 h
Nannizzia gypsea = test: Antifungal activity against Microsporum gypseum after 5 days; type: functional; conditions: 120 h
Saccharomyces cerevisiae = test: Antifungal activity against Saccharomyces cerevisiae ATCC 9763 after 48 hrs by CLSI-based broth microdilution method; type: functional; conditions: ATCC 9763, 48 h
[8] = tested on: Trichophyton mentagrophytes; test: Antifungal activity against Trichophyton mentagrophytes after 5 days; type: functional; conditions: 120 h
Nakaseomyces glabratus [9] = test: Antifungal activity against Candida glabrata ATCC 90030; type: functional
Nakaseomyces glabratus [10] = test: Antifungal activity against Candida glabrata 493 by microdilution method; type: functional
Pichia kudriavzevii [11] = test: Antifungal activity against Candida krusei 168 by microdilution method; type: functional
Nakaseomyces glabratus [12] = test: Antifungal activity against Candida glabrata 507 by microdilution method; type: functional
Nakaseomyces glabratus [13] = test: Antifungal activity against Candida glabrata 587 by microdilution method; type: functional
Candida albicans [14] = test: Antifungal activity against Candida albicans 498 by microdilution method; type: functional
Nakaseomyces glabratus [15] = test: Antifungal activity against Candida glabrata 510 by microdilution method; type: functional
Candida albicans [16] = test: Antifungal activity against Candida albicans 53 by microdilution method; type: functional
Nakaseomyces glabratus [17] = test: Antifungal activity against Candida glabrata 531 by microdilution method; type: functional
Nakaseomyces glabratus [18] = test: Antifungal activity against Candida glabrata 482 by microdilution method; type: functional
Candida albicans [19] = test: Antifungal activity against Candida albicans ATCC 10231 by microdilution method; type: functional
Candida albicans [20] = test: Antifungal activity against Candida albicans 501 by microdilution method; type: functional
Candida parapsilosis [21] = test: Antifungal activity against Candida parapsilosis 96 by microdilution method; type: functional; conditions: Lodderomyces parapsilosis
Candida tropicalis [22] = test: Antifungal activity against Candida tropicalis 166 by microdilution method; type: functional
Cryptococcus neoformans [23] = test: Antifungal activity against Cryptococcus neoformans after 48 hrs by broth micro dilution method; type: functional
Candida albicans [24] = test: Antifungal activity against Candida albicans after 48 hrs by broth micro dilution method; type: functional
Candida parapsilosis [25] = test: Antifungal activity against Candida parapsilosis after 48 hrs by broth micro dilution method; type: functional; conditions: Lodderomyces parapsilosis
Trichophyton rubrum [26] = test: Antifungal activity against Trichophyton rubrum NBRC 5467 by microdilution method; type: functional
Candida parapsilosis [27] = test: Antifungal activity against Candida parapsilosis ATCC 22014; type: functional; conditions: Lodderomyces parapsilosis
Pichia kudriavzevii [28] = test: Antifungal activity against Candida krusei ATCC 6258; type: functional
[29] = tested on: Trichophyton mentagrophytes; test: Antifungal activity against Trichophyton mentagrophytes IFM 46027 by microdilution method; type: functional
Aspergillus fumigatus [30] = test: Antifungal activity against Aspergillus fumigatus NBRC 4400 by microdilution method; type: functional
Candida parapsilosis [31] = test: Antifungal activity against Candida parapsilosis 90/2224; type: functional; conditions: Lodderomyces parapsilosis
Pichia kudriavzevii [32] = test: Antifungal activity against Candida krusei CK25; type: functional
Trichophyton rubrum [33] = test: Antifungal activity against Trichophyton rubrum; type: functional
Nakaseomyces glabratus [34] = test: Antifungal activity against Candida glabrata WT-5; type: functional
Candida albicans [35] = test: Antifungal activity against Candida albicans NBRC 1385 by microdilution method; type: functional

Row | Compound | MIC (Candida albicans [2]) [µg/mL] | MIC (Candida albicans [3]) [µg/mL] | MIC (Cryptococcus gattii) [µg/mL] | MIC (Candida tropicalis [4]) [µg/mL] | MIC (Cryptococcus neoformans [5]) [µg/mL] | MIC (Trichophyton rubrum [6]) [µg/mL] | MIC (Cryptococcus neoformans [7]) [µg/mL] | MIC (Nakaseomyces glabratus [9]) [µg/mL] | MIC (Nakaseomyces glabratus [10]) [µg/mL] | MIC (Nakaseomyces glabratus [12]) [µg/mL] | MIC (Nakaseomyces glabratus [13]) [µg/mL] | MIC (Candida albicans [14]) [µg/mL] | MIC (Nakaseomyces glabratus [15]) [µg/mL] | MIC (Candida albicans [16]) [µg/mL] | MIC (Nakaseomyces glabratus [17]) [µg/mL] | MIC (Nakaseomyces glabratus [18]) [µg/mL] | MIC (Candida albicans [19]) [µg/mL] | MIC (Candida albicans [20]) [µg/mL] | MIC (Candida parapsilosis [21]) [µg/mL] | MIC (Candida tropicalis [22]) [µg/mL] | further results
1 | O=C(/C=C/c1ccc(Cl)cc1Cl)c1ccc(/N=N/c2c(O)cccc2O)cc1 | 15 (≈ 36.3 µM) |  |  |  |  |  |  |  |  |  |  |  |  |  |  |  |  |  |  |  | MIC (Aspergillus fumigatus [1]): 31.2 µg/mL (≈ 75.6 µM)
2 | COc1cc(O)cc2oc(-c3cc(O)c(O)c(O)c3)c(O)c(=O)c12 |  | 31.2 (≈ 93.9 µM) | 128 (≈ 385 µM) | 31.2 (≈ 93.9 µM) | 8 to 128 (≈ 24.1 to 385 µM) | 4 to 128 (≈ 12 to 385 µM) | 31.2 (≈ 93.9 µM) | 6.79 to 15.4 (≈ 20.4 to 46.3 µM) |  |  |  |  |  |  |  |  |  |  |  |  | MIC (Trichophyton tonsurans): 4 to 128 µg/mL (≈ 12 to 385 µM); MIC (Nannizzia gypsea): 4 to 128 µg/mL (≈ 12 to 385 µM); MIC (Saccharomyces cerevisiae): 31.2 µg/mL (≈ 93.9 µM); MIC [8]: 4 to 128 µg/mL (≈ 12 to 385 µM)
3 | O=c1c(O)c(-c2cc(O)c(O)c(O)c2)oc2cc(O)cc(O)c12 [MYRICETIN] |  | 31.2 (≈ 98 µM) | 128 (≈ 402 µM) | 31.2 (≈ 98 µM) | 8 to 128 (≈ 25.1 to 402 µM) | 4 to 128 (≈ 12.6 to 402 µM) | 31.2 (≈ 98 µM) | 6.79 (≈ 21.3 µM) | 3.9 to 15.7 (≈ 12.3 to 49.3 µM) | 3.9 to 15.7 (≈ 12.3 to 49.3 µM) | 3.9 to 15.7 (≈ 12.3 to 49.3 µM) | 16 to 64 (≈ 50.3 to 201 µM) | 3.9 to 15.7 (≈ 12.3 to 49.3 µM) | 16 to 64 (≈ 50.3 to 201 µM) | 3.9 to 15.7 (≈ 12.3 to 49.3 µM) | 3.9 to 15.7 (≈ 12.3 to 49.3 µM) | 16 to 64 (≈ 50.3 to 201 µM) | 16 to 64 (≈ 50.3 to 201 µM) | 16 (≈ 50.3 µM) | 64 (≈ 201 µM) | MIC (Pichia kudriavzevii [11]): 64 µg/mL (≈ 201 µM); MIC (Trichophyton tonsurans): 4 to 128 µg/mL (≈ 12.6 to 402 µM); MIC (Nannizzia gypsea): 4 to 128 µg/mL (≈ 12.6 to 402 µM); MIC (Saccharomyces cerevisiae): 31.2 µg/mL (≈ 98 µM); MIC [8]: 4 to 128 µg/mL (≈ 12.6 to 402 µM)
4 | O=c1c(O)c(-c2ccc(O)cc2)oc2cc(O)cc(O)c12 [KAEMPFEROL] | 256 to 512 (≈ 894 to 1790 µM) |  |  |  |  |  |  |  | 31.2 (≈ 109 µM) | 31.2 (≈ 109 µM) | 31.2 (≈ 109 µM) | > 83 | 31.2 (≈ 109 µM) | > 83 | 31.2 (≈ 109 µM) | 31.2 (≈ 109 µM) | > 83 | > 83 | > 83 | > 83 | MIC (Pichia kudriavzevii [11]): > 83 µg/mL
5 | O=C(O)[C@H]1O[C@@H](Oc2cc(O)c3c(=O)cc(-c4ccc(O)cc4)oc3c2)[C@H](O)[C@@H](O)[C@@H]1O |  |  |  |  |  |  |  |  |  |  |  |  |  |  |  |  |  |  |  |  | MIC (Cryptococcus neoformans [23]): 128 µg/mL (≈ 287 µM); MIC (Candida albicans [24]): > 256 µg/mL; MIC (Candida parapsilosis [25]): 64 µg/mL (≈ 143 µM)
6 | O=c1cc(-c2ccc(O)c(O)c2)oc2cc(O)cc(O)c12 [LUTEOLIN] |  |  |  |  |  |  |  | 52.7 (≈ 184 µM) | 3.9 to 7.8 (≈ 13.6 to 27.2 µM) | 3.9 to 7.8 (≈ 13.6 to 27.2 µM) | 3.9 to 7.8 (≈ 13.6 to 27.2 µM) | > 83 | 3.9 to 7.8 (≈ 13.6 to 27.2 µM) | > 83 | 3.9 to 7.8 (≈ 13.6 to 27.2 µM) | 3.9 to 7.8 (≈ 13.6 to 27.2 µM) | > 83 | > 83 | > 83 | > 83 | MIC (Trichophyton rubrum [26]): 120 µM (≈ 34.3 µg/mL); MIC (Candida parapsilosis [27]): 5.4 µg/mL (≈ 18.9 µM); MIC (Pichia kudriavzevii [28]): 2.7 µg/mL (≈ 9.43 µM); MIC [29]: 60 µM (≈ 17.2 µg/mL); MIC (Aspergillus fumigatus [30]): 230 µM (≈ 65.8 µg/mL); MIC (Candida parapsilosis [31]): 5.4 µg/mL (≈ 18.9 µM); MIC (Pichia kudriavzevii [32]): 2.7 µg/mL (≈ 9.43 µM); MIC (Trichophyton rubrum [33]): 250 µg/mL (≈ 873 µM); MIC (Nakaseomyces glabratus [34]): 52.7 µg/mL (≈ 184 µM); MIC50 (Candida parapsilosis [21]): 13 to 104 µg/mL (≈ 45.4 to 363 µM); MIC50 (Candida tropicalis [22]): 13 to 104 µg/mL (≈ 45.4 to 363 µM); MIC (Candida albicans [35]): 30 µM (≈ 8.59 µg/mL)
